Data set [1] deals with LNCaP. The data set is described as follows: Cytotoxicity against human LNCAP cells assessed as decrease in cell viability after 72 hrs by trypan blue exclusion assay. The format is functional, cell-based.
Data set [2] concerns LNCaP. Put plainly: Induction of apoptosis in human LNCAP cells assessed as morphological changes by propidium iodide staining based fluorescence microscopy. The format is functional, cell-based.
Data set [3] addresses Mitogen-activated protein kinase 3 (Homo sapiens) (UniProt P27361). Put plainly: Potentiation of 2 nM docetaxel-induced inhibition of Erk1 phosphorylation in human PC3 cells at 50 nM after 24 hrs by Western blot method relative to control. The format is cell-based. For orientation: Immunoblotting shows a protein as a band on a membrane.
In data set [4] the test system is PC-3. Put plainly: Cytotoxicity against human PC3 cells assessed as decrease in cell viability after 72 hrs by trypan blue exclusion assay. The format is functional, cell-based.
In data set [5] the test system is PC-3. The data set is described as follows: Potentiation of 3 nM docetaxel-induced cytotoxicity against human PC3 cells assessed as decrease in cell viability at 50 nM after 72 hrs by trypan blue exclusion assay. It is filed as functional, cell-based.
Data set [6] deals with PC-3. The data set is described as follows: Cytotoxicity against human PC3 cells assessed as cell viability at 50 nM after 72 hrs by trypan blue exclusion assay relative to control. It is filed as functional. The conditions noted are these: PC-3, 72 h, read-out: Activity.
In data set [7] the test system is PC-3. The data set is described as follows: Potentiation of 2 nM docetaxel-induced cytotoxicity against human PC3 cells assessed as cell viability at 50 nM after 72 hrs by trypan blue exclusion assay relative to control. The format is functional.
In data set [8] the target is Mitogen-activated protein kinase 1 (Homo sapiens) (UniProt P28482). Put plainly: Inhibition of Erk2 phosphorylation in human PC3 cells at 50 nM after 24 hrs by Western blot method relative to control. It is filed as cell-based.
Data set [9] relates to PC-3. Put plainly: Induction of apoptosis in human PC3 cells at 50 nM after 72 hrs by propidium iodide staining based fluorescence microscopy (reference value: 1.9 +/- 0.8%). It is filed as functional.
In data set [10] the target is Mitogen-activated protein kinase 1 (Homo sapiens) (UniProt P28482). Put plainly: Potentiation of 2 nM docetaxel-induced inhibition of Erk2 phosphorylation in human PC3 cells at 50 nM after 24 hrs by Western blot method relative to control. The format is cell-based.
Data set [11] deals with PC-3. Put plainly: Potentiation of 2 nM docetaxel-induced cytotoxicity against 3D culture of human PC3 cells assessed as size of tissue like structure at 50 nM administered once every alternative day for 10 days measured on post last dose by matrigel based microscopic method relative to control. It is filed as functional.
A short description of data set [12]: Drug uptake in CD2F1 mouse plasma at 26.3 mg/kg administered for 1 min via intravenous injection measured 60 mins post dose. The format is ADME, organism-based.
Data set [13] deals with RWPE-1. The data set is described as follows: Potentiation of 3 nM docetaxel-induced cytotoxicity against human RWPE1 cells assessed as decrease in cell viability at 50 nM after 72 hrs by trypan blue exclusion assay. It is filed as cell-based. The conditions noted are these: rwpe-1, 72 h, 0.05 µM.
Data set [14] deals with PC-3. Put plainly: Potentiation of 2 nM docetaxel-induced apoptosis in human PC3 cells assessed as Bcl2 level at 50 nM after 24 hrs by Western blot method relative to control. The format is functional.
Data set [15] concerns RWPE-1. Put plainly: Cytotoxicity against human RWPE1 cells at >=100 nM after 72 hrs by tryphan blue exclusion assay. The conditions noted are these: rwpe-1, 72 h. It is filed as cell-based.
Data set [16] concerns RWPE-1. Put plainly: Potentiation of 2 nM docetaxel-induced cytotoxicity against human RWPE1 cells assessed as decrease in cell viability at 50 nM after 72 hrs by trypan blue exclusion assay. The conditions noted are these: rwpe-1, 72 h, 0.05 µM. The format is cell-based.
Data set [17] has as its system PC-3. The data set is described as follows: Induction of apoptosis in human PC3 cells assessed as morphological changes by propidium iodide staining based fluorescence microscopy. The format is functional, cell-based.
For data set [18], the target named is RAC-alpha serine/threonine-protein kinase (Homo sapiens) (UniProt P31749). The data set is described as follows: Inhibition of Akt phosphorylation in human PC3 cells at 50 nM after 24 hrs by Western blot method relative to control. It is filed as cell-based.
Data set [19] concerns PC-3. Put plainly: Induction of apoptosis in human PC3 cells assessed as Bcl2 level at 50 nM after 24 hrs by Western blot method relative to control. The format is functional.
Data set [20] can be described thus: Selectivity ratio for potentiation of 2 nM docetaxel-induced cytotoxicity against human PC3 cells to potentiation of 2 nM docetaxel-induced cytotoxicity against human RWPE1 cells.
For data set [21], the system named is PC-3. Put plainly: Cytotoxicity against 3D culture of human PC3 cells assessed as size of tissue like structure at 50 nM administered once every alternative day for 10 days measured on post last dose by matrigel based microscopic method relative to control. The format is functional.
The target in data set [22] is RAC-alpha serine/threonine-protein kinase (Homo sapiens) (UniProt P31749). The data set is described as follows: Potentiation of 2 nM docetaxel-induced inhibition of Akt phosphorylation in human PC3 cells at 50 nM after 24 hrs by Western blot method relative to control. It is filed as cell-based.
In data set [23] the target is Mitogen-activated protein kinase 3 (Homo sapiens) (UniProt P27361). Put plainly: Inhibition of Erk1 phosphorylation in human PC3 cells at 50 nM after 24 hrs by Western blot method relative to control. It is filed as cell-based.
Data set [24] relates to PC-3. The data set is described as follows: Potentiation of 2 nM docetaxel-induced apoptosis in human PC3 cells at 50 nM after 72 hrs by propidium iodide staining based fluorescence microscopy (reference value: 1.9 +/- 0.8%). The format is functional.
The target in data set [25] is Mitogen-activated protein kinase 1 (Homo sapiens) (UniProt P28482). Put plainly: Inhibition of Erk2 phosphorylation in human PC3 cells at 2 nM after 24 hrs by Western blot method relative to control. It is filed as cell-based.
The test system of data set [26] is PC-3. The data set is described as follows: Induction of apoptosis in human PC3 cells assessed as Bcl2 level at 2 nM after 24 hrs by Western blot method relative to control. The format is functional.
Data set [27] relates to PC-3. Put plainly: Cytotoxicity against 3D cultures of human PC3 cells assessed as size of tissue-like structure at 2 nM administered once every alternative day for 10 days measured on post last dose by matrigel based microscopic method relative to control. The format is functional.
Data set [28] concerns PC-3. The data set is described as follows: Cytotoxicity against human PC3 cells assessed as cell viability at 2 nM after 72 hrs by trypan blue exclusion assay relative to control. The format is functional. The conditions noted are these: PC-3, 72 h, read-out: Activity.
Data set [29] relates to Plasma. Put plainly: Drug uptake in cancer patient plasma at 35 mg/m2, iv administered once every week via infusion measured on day 8 by HPLC-TMS. The format is ADME, organism-based. The conditions noted are these: human, in vivo.
Data set [30] concerns PC-3. Put plainly: Cytotoxicity against human PC3 cells. The format is functional, cell-based.
The target in data set [31] is RAC-alpha serine/threonine-protein kinase (Homo sapiens) (UniProt P31749). Put plainly: Inhibition of Akt phosphorylation in human PC3 cells at 2 nM after 24 hrs by Western blot method relative to control. It is filed as cell-based.
Data set [32] is described as follows: Drug uptake in patient plasma at 20 mg/m2, iv administered for 1 hr as infusion measured 72 hrs post dose. It is filed as ADME, organism-based. The conditions noted are these: human.
The target of data set [33] is Mitogen-activated protein kinase 3 (Homo sapiens) (UniProt P27361). The data set is described as follows: Inhibition of Erk1 phosphorylation in human PC3 cells at 2 nM after 24 hrs by Western blot method relative to control. It is filed as cell-based.
Data set [34] relates to PC-3. Put plainly: Induction of apoptosis in human PC3 cells at 2 nM after 72 hrs by propidium iodide staining based fluorescence microscopy (reference value: 1.9 +/- 0.8%). The format is functional.
Data set [35] deals with RWPE-1. Put plainly: Cytotoxicity against human RWPE1 cells at 5 to 10 nM after 72 hrs by trypan blue exclusion assay. The format is cell-based. The conditions noted are these: rwpe-1, 72 h, 0.01 µM.

Activity calls are given as the source filed them. The calls are words filed in the database; no cut-off is given here.

Chain of Mitogen-activated protein kinase 1 (Homo sapiens) (P28482 whole entry): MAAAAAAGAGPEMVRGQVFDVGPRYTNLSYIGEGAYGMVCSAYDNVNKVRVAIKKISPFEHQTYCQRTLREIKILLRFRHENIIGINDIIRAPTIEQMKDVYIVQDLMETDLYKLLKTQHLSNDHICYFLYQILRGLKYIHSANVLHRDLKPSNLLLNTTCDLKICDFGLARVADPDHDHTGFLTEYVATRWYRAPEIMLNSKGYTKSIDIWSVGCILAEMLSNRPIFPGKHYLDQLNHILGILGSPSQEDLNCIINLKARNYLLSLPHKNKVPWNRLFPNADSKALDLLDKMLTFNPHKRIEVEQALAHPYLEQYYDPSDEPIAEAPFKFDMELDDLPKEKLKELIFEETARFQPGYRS
Chain of Mitogen-activated protein kinase 3 (Homo sapiens) (P27361 whole entry): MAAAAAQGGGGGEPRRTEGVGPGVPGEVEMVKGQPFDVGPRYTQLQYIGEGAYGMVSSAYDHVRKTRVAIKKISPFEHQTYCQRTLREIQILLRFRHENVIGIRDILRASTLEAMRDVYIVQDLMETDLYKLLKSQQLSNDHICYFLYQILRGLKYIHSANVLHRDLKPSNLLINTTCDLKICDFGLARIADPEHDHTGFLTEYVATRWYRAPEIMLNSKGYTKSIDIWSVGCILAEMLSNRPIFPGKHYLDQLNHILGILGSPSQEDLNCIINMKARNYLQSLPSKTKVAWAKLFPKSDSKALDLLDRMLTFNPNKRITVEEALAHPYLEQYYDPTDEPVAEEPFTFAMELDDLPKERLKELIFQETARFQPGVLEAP
Chain of RAC-alpha serine/threonine-protein kinase (Homo sapiens) (P31749 whole entry, the tested form may be a part): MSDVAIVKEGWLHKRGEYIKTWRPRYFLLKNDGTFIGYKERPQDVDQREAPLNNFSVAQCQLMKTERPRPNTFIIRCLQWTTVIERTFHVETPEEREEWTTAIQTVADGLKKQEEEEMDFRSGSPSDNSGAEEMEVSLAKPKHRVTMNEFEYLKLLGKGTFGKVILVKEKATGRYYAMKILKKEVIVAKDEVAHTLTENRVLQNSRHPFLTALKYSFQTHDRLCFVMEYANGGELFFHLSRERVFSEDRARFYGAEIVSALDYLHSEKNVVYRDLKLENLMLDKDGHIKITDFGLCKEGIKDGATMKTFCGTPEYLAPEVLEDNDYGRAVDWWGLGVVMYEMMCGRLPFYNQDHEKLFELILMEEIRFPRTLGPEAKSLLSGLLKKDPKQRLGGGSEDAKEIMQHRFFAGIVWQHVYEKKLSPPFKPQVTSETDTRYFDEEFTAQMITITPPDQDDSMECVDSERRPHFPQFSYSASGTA

`C[C@H]1CCC/C=C/[C@@H]2C[C@H](O)C[C@H]2[C@H](O)/C=C/C(=O)O1` [BREFELDIN A]: the Activity result in data set [1] was “Dose-dependent effect”; in [2], “Dose-dependent effect”; in [4] it was “Dose-dependent effect”; in data set [7], 48.4%; in data set [9] it was 18%; in data set [11], 38.8%. Also, the Activity entry was “Toxic” in data set [13]; “Toxic” in data set [15]; “Toxic” in [16]; “Dose-dependent effect” in [17]; 79.3% in data set [21]; 51.2% in data set [24]. Besides, the fold change (FC) in data set [3] was found to be 0.93; in data set [8] it was 0.97; in [10], 0.96; in data set [14] it was 0.32; in data set [18], 0.99; in data set [19], 0.99. Further, the fold change (FC) in data set [22] worked out at 0.97; in data set [23], 0.99. Further, the result in data set [5] was Active. In addition, the viability at 0.05 µM in [6] was 83.4%. In [12], this compound returned a concentration at 1 h of 700 nM. For the same compound, the Selectivity ratio in data set [20] turned out to be 4.

Turning to `CC(=O)O[C@@]12CO[C@@H]1C[C@H](O)[C@@]1(C)C(=O)[C@H](O)C3=C(C)[C@@H](OC(=O)[C@H](O)[C@@H](NC(=O)OC(C)(C)C)c4ccccc4)C[C@@](O)([C@@H](OC(=O)c4ccccc4)[C@H]21)C3(C)C` [DOCETAXEL ANHYDROUS], the Activity result in [1] was “Dose-dependent effect”; in data set [2], “Dose-dependent effect”; in data set [4], “Dose-dependent effect”; in data set [27] it was 83.1%; in data set [16], “Toxic”; in data set [17], “Dose-dependent effect”. Besides, the Activity in [34] is 14.5%; in data set [35] it was “Toxic”. The fold change (FC) in data set [25] was 0.96; in data set [26] it was 0.71; in data set [31], 1.01; in [33], 0.95. In addition, the IC50 in [4] (PC-3, 72 h) was 8 nM; in [30], 5 to 24 nM. The outcome in [5] was Active. Also, the viability at 0.002 µM in data set [28] is 86.7%. This compound showed a concentration in data set [29] of 1.79 nM. For the same compound, in [32], the concentration at 72 h is 2.8 nM.

As a reminder, the IC50 is the point on the concentration scale where inhibition reaches its midpoint.

The record behind these values is ChEMBL document CHEMBL4024735, “Brefeldin A enhances docetaxel-induced growth inhibition and apoptosis in prostate cancer cells in monolayer and 3D cultures” (Bioorg Med Chem Lett, 2017).
